Article PMC7160362, “A Polyamine-Based Dinitro-Naphthalimide Conjugate as Substrates for Polyamine Transporters Preferentially Accumulates in Cancer Cells and Minimizes Side Effects in vitro and in vivo” (Frontiers in Chemistry, 2020)

Experiments:
Assay type in all cases: cell-based
p53 in Snu-739 cells = assay: Western blot of p53; settings: Snu-739, 24 h
Experimental: We performed western blot analysis to determine the contents of p53 after treatment by 5c for 5, 10, and 15 μM for 24 h. After washing three times with PBS, we harvested and centrifuged the cells, which were lysed with a RIPA buffer (Beyotime, China). The total contents of protein were determined by a BCA assay kit (Beyotime, China). At 100°C for 10 min, the total lysates were denatured in a 5 × SDS-loading buffer. Equal amounts of total proteins were separated by 12% SDS-PAGE. Dried skimmed milk (5%) was used to block the separated protein in Tris Buffered Saline Tween (TBST) at room temperature for 1 h. And then the corresponding primary antibodies and the appropriate HRP-conjugated secondary antibody were used to incubate with the separated protein. By ECL plus reagents (Beyotime, Jiangsu, China), we detected the expression of p53.

[1] = test system: Put, Spd, and Spm in Snu-368 cells; assay: Polyamine contents assay (HPLC, dansyl derivatives); settings: Snu-368, 24 h
Excerpt: (§1) According to our previous report (Wang et al., [2012]; Li et al., [2016], [2018]; Dai et al., [2017a]; Ma et al., [2017a],[b], [2018]; Liu et al., [2019]), the contents of Put, Spd, and Spm were detected by a G1321A fluorescence detector in both Snu-368 and Snu-739 cells. Cells were harvested and dansyl chloride was used as the derivation reagent. After converting to the corresponding dansyl derivatives, Put, Spd, and Spm were separated by using High Performance Liquid Chromatogra (HPLC) (Agilent 1260, Agilent Technologies, USA) with a C18 chromatographic column (25 × 4.6 mm, 5 μm). As the internal standard substance, 1,6-diaminohexane was used. The excitation and emission wavelengths were 340 and 515 nm, separately. The mobile phase was methanol–water from 65:35 to 100:0 within 30 min.

[2] = test system: Put, Spd, and Spm in Snu-739 cells; assay: as above; settings: Snu-739, 24 h
Excerpt: as §1

O=C1c2cc([N+](=O)[O-])cc3cc([N+](=O)[O-])cc(c23)C(=O)N1CCCCNCCCNC1CC1 [5c]
p53 protein expression (p53 in Snu-739 cells): upregulated | contents of Put, Spd, and Spm versus control group [1]: downregulated | contents of Put, Spd, and Spm versus control group [2]: downregulated
